Source: BindingDB's records for doi:10.1021/jm00384a019 (1987)

Target: DNA polymerase alpha (Cricetulus griseus)
Test: Compound was evaluated for the concentration which gives half-maximal inhibition of Chinese Hamster Ovary DNA polymerase alpha

SMILES: CCCCc1ccc(Nc2nc(Cl)c3[nH]cnc3n2)cc1 [(4-Butyl-phenyl)-(6-chloro-9H-purin-2-yl)-amine]
- Ki: 2.6 µM

SMILES: CCCCc1ccc(Nc2nc(OC)c3[nH]cnc3n2)cc1 [(4-Butyl-phenyl)-(6-methoxy-9H-purin-2-yl)-amine]
- Ki: 1.4 µM

SMILES: CCCCc1ccc(Nc2nc(N)c3[nH]cnc3n2)cc1 [N*2*-(4-Butyl-phenyl)-9H-purine-2,6-diamine]
- Ki: 14.4 µM

SMILES: CCCCc1ccc(Nc2ncc3[nH]cnc3n2)cc1 [(4-Butyl-phenyl)-(9H-purin-2-yl)-amine]
- Ki: 5 µM

SMILES: CCCCc1ccc(Nc2nc(SC)c3[nH]cnc3n2)cc1 [(4-Butyl-phenyl)-(6-methylsulfanyl-9H-purin-2-yl)-amine]
- Ki: 1 µM
